Values after ≈ are worked out from the molar mass of the structure shown.
Columns and labels:
Assay in all cases: In vitro antibacterial evaluation: minimum inhibitory concentration (MIC), broth dilution method
Assay type in all cases: cell-based
Escherichia coli = conditions: 18 hours at 35° C.
Summary of the method: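 NCCLS M7-A2 broth dilution with Mueller-Hinton II, testing 64-0.06 μg/mL antibiotic against 5×10^5 CFU/mL inocula. Test strains include recent methicillin-, penicillin- or vancomycin-resistant clinical isolates. MIC is the lowest concentration preventing growth.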

Enterococcus sp. = conditions: 18 hours at 35° C.
Summary of the method: (§1)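 First, organisms are seeded at 5×10^5 CFU/mL into Muller-Hinton II […]. Next, antibiotic is applied across 64-0.06 μg/mL by broth dilution (NCCLS M7-A2). Finally, the lowest inhibitory concentration is recorded as MIC.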

Streptococcus sp. = conditions: 18 hours at 35° C.
Summary of the method: as §1

Staphylococcus sp. = test system: Staphylococcus sp.
Summary of the method: as §1

[1] = broth dilution, inoculum 5×10^5 CFU/mL

Compound: N=C1NCC(C(O)C2NC(=O)C(Cc3ccc(OC4OC(CO)C(OC5OC6COC(CCc7ccccc7)OC6C(O)C5O)C(O)C4O)cc3)NC(=O)C(CC3CCCCC3)NC(=O)CNC(=O)C(CO)NC(=O)C(C(O)C3CNC(=N)N3C3OC(CO)C(O)C(O)C3O)NC2=O)N1 (stereo not drawn) [Example 198, Cyclo[3-cyclohexylalanyl-O-[4-O-[4,6-O-(3-phenylpropylidene)hexopyranosyl]hexopyranosyl]tyrosyl-3-(2-iminoimidazolidin-4-yl)seryl-3-(3-hexopyranosyl-2-iminoimidazolidin-4-yl)serylserylglycyl]]
- MIC Escherichia coli (ATCC 25922) (Escherichia coli; Escherichia coli (ATCC 25922)): 32 mg/L (≈ 22.8 µM)
- MIC Escherichia coli (GC 4559) (Escherichia coli; Escherichia coli (GC 4559)): 32 mg/L (≈ 22.8 µM)
- MIC Escherichia coli (GC 4560) (Escherichia coli; Escherichia coli (GC 4560)): 1 mg/L (≈ 0.713 µM)
- MIC Enterococcus avium (GC 4558) (Enterococcus sp.; Enterococcus avium (GC 4558)): 1 mg/L (≈ 0.713 µM)
- MIC Enterococcus faecalis (ATCC 29212) (Enterococcus sp.; Enterococcus faecalis (ATCC 29212)): 1 mg/L (≈ 0.713 µM)
- MIC Enterococcus faecalis (GC 2242) (Enterococcus sp.; Enterococcus faecalis (GC 2242)): 1 mg/L (≈ 0.713 µM)
- MIC Enterococcus faecalis (GC 2691) (Enterococcus sp.; Enterococcus faecalis (GC 2691)): 1 mg/L (≈ 0.713 µM)
- MIC Enterococcus faecalis (GC 3059) (Enterococcus sp.; Enterococcus faecalis (GC 3059)): 1 mg/L (≈ 0.713 µM)
- MIC Enterococcus faecalis (GC 4552) (Enterococcus sp.; Enterococcus faecalis (GC 4552)): 1 mg/L (≈ 0.713 µM)
- MIC Enterococcus faecalis (GC 4553) (Enterococcus sp.; Enterococcus faecalis (GC 4553)): 1 mg/L (≈ 0.713 µM)
- MIC Enterococcus faecalis (GC 4554) (Enterococcus sp.; Enterococcus faecalis (GC 4554)): 1 mg/L (≈ 0.713 µM)
- MIC Enterococcus faecalis (GC 6189) (Enterococcus sp.; Enterococcus faecalis (GC 6189)): 1 mg/L (≈ 0.713 µM)
- MIC Enterococcus faecium (GC 2243) (Enterococcus sp.; Enterococcus faecium (GC 2243)): 1 mg/L (≈ 0.713 µM)
- MIC Enterococcus faecium (GC 4556) (Enterococcus sp.; Enterococcus faecium (GC 4556)): 1 mg/L (≈ 0.713 µM)
- MIC Enterococcus faecium (GC 4557) (Enterococcus sp.; Enterococcus faecium (GC 4557)): 1 mg/L (≈ 0.713 µM)
- MIC Enterococcus avium (GC 4558) (Enterococcus sp.; [1]): 1 mg/L (≈ 0.713 µM)
- MIC Enterococcus faecalis (ATCC 29212) (Enterococcus sp.; [1]): 1 mg/L (≈ 0.713 µM)
- MIC Enterococcus faecalis (GC 2242) (Enterococcus sp.; [1]): 1 mg/L (≈ 0.713 µM)
- MIC Enterococcus faecalis (GC 2691) (Enterococcus sp.; [1]): 1 mg/L (≈ 0.713 µM)
- MIC Enterococcus faecalis (GC 3059) (Enterococcus sp.; [1]): 1 mg/L (≈ 0.713 µM)
- MIC Enterococcus faecalis (GC 4552) (Enterococcus sp.; [1]): 1 mg/L (≈ 0.713 µM)
- MIC Enterococcus faecalis (GC 4553) (Enterococcus sp.; [1]): 1 mg/L (≈ 0.713 µM)
- MIC Enterococcus faecalis (GC 4554) (Enterococcus sp.; [1]): 1 mg/L (≈ 0.713 µM)
- MIC Enterococcus faecalis (GC 6189) (Enterococcus sp.; [1]): 1 mg/L (≈ 0.713 µM)
- MIC Enterococcus faecium (GC 2243) (Enterococcus sp.; [1]): 1 mg/L (≈ 0.713 µM)
- MIC Enterococcus faecium (GC 4556) (Enterococcus sp.; [1]): 1 mg/L (≈ 0.713 µM)
- MIC Enterococcus faecium (GC 4557) (Enterococcus sp.; [1]): 1 mg/L (≈ 0.713 µM)
- MIC Streptococcus agalactiae (GC 4564) (Streptococcus sp.; Streptococcus agalactiae (GC 4564)): <0.12 mg/L
- MIC Streptococcus pneumoniae (ATCC 6301) (Streptococcus sp.; Streptococcus pneumoniae (ATCC 6301)): <0.12 mg/L
- MIC Streptococcus pneumoniae (GC 1894) (Streptococcus sp.; Streptococcus pneumoniae (GC 1894)): <0.12 mg/L
- MIC Streptococcus pneumoniae (GC 4565) (Streptococcus sp.; Streptococcus pneumoniae (GC 4565)): <0.12 mg/L
- MIC Streptococcus pyogenes (GC 4563) (Streptococcus sp.; Streptococcus pyogenes (GC 4563)): <0.12 mg/L
- MIC Streptococcus agalactiae (GC 4564) (Streptococcus sp.; [1]): <0.12 mg/L
- MIC Streptococcus pneumoniae (ATCC 6301) (Streptococcus sp.; [1]): <0.12 mg/L
- MIC Streptococcus pneumoniae (GC 1894) (Streptococcus sp.; [1]): <0.12 mg/L
- MIC Streptococcus pneumoniae (GC 4565) (Streptococcus sp.; [1]): <0.12 mg/L
- MIC Streptococcus pyogenes (GC 4563) (Streptococcus sp.; [1]): <0.12 mg/L
- MIC Staphylococcus aureus (ATCC 29213) (Staphylococcus sp.; strain ATCC 29213): 0.5 mg/L (≈ 0.356 µM)
- MIC Staphylococcus aureus (GC 1131) (Staphylococcus sp.; strain GC 1131): 1 mg/L (≈ 0.713 µM)
- MIC Staphylococcus aureus (GC 3051) (Staphylococcus sp.; strain GC 3051): 0.5 mg/L (≈ 0.356 µM)
- MIC Staphylococcus aureus (GC 3053) (Staphylococcus sp.; strain GC 3053): 0.5 mg/L (≈ 0.356 µM)
- MIC Staphylococcus aureus (GC 4541) (Staphylococcus sp.; strain GC 4541): 0.5 mg/L (≈ 0.356 µM)
- MIC Staphylococcus aureus (GC 4542) (Staphylococcus sp.; strain GC 4542): 0.25 mg/L (≈ 0.178 µM)
- MIC Staphylococcus aureus-SMITH (GC 4543) (Staphylococcus sp.; strain GC 4543): 0.5 mg/L (≈ 0.356 µM)
- MIC Staphylococcus aureus (GC 4544) (Staphylococcus sp.; strain GC 4544): 0.5 mg/L (≈ 0.356 µM)
- MIC Staphylococcus aureus (GC 4545) (Staphylococcus sp.; strain GC 4545): 0.5 mg/L (≈ 0.356 µM)
- MIC Staphylococcus haemolyticus (GC 4546) (Staphylococcus sp.; strain GC 4546): 0.5 mg/L (≈ 0.356 µM)
- MIC Coagulase Negative Staphylococcus (GC 4547) (Staphylococcus sp.; strain GC 4547): 1 mg/L (≈ 0.713 µM)
- MIC Coagulase Negative Staphylococcus (GC 4548) (Staphylococcus sp.; strain GC 4548): >0.12 mg/L
- MIC Coagulase Negative Staphylococcus (GC 4549) (Staphylococcus sp.; strain GC 4549): 0.5 mg/L (≈ 0.356 µM)
- MIC Coagulase Negative Staphylococcus (GC 4551) (Staphylococcus sp.; strain GC 4551): 0.5 mg/L (≈ 0.356 µM)
